Experimental data: US20100215716A1, “COMPOSITIONS AND METHODS FOR COATING ORTHOPEDIC IMPLANTS” (Biomet Manufacturing Corp., priority 2009, published 2010)

Assay: Solubility of antibiotics and polymer in organic solvents

solubility in ethyl acetate, dichloromethane, and tetrahydrofuran: dissolved
Structure (SMILES): CC[C@H]1OC(=O)[C@H](C)[C@@H](O[C@H]2C[C@@](C)(OC)[C@@H](O)[C@H](C)O2)[C@H](C)[C@@H](O[C@@H]2O[C@H](C)C[C@H](N(C)C)[C@H]2O)[C@](C)(O)C[C@@H](C)C(=O)[C@H](C)[C@@H](O)[C@]1(C)O [erythromycin]
